Where a name gives a salt, the structure may show the parent alone. Read-outs that look alike come from different tables or passages of the source.
Experiment: Phase 2a study: trough and peak plasma drug levels
Type: in vivo, human (postmenopausal women)
Conditions: for concentration at 8 day / concentration at 15 day / concentration at 29 day: female, human, plasma; for concentration at 29 day: Day 29, ITT
From the text: This is a randomized, placebo-controlled, double-blind, parallel-group, Phase 2, multi-center, dose-finding study to evaluate the effects of (R)-6-(2-(ethyl(4-(2-(ethylamino)ethyl)benzyl)amino)-4-methoxyphenyl)-5,6,7,8-tetrahydronaphthalen-2-ol dihydrochloride in the treatment of vasomotor symptoms in postmenopausal women.
A total of 100 eligible patients will be randomized to receive one of 5 blinded treatment regimens. (R)-6-(2-(ethyl(4-(2-(ethylamino)ethyl)benzyl)amino)-4-methoxyphenyl)-5,6,7,8-tetrahydronaphthalen-2-ol dihydrochloride at doses 0, 10, 25, 50 or 100 mg will be dosed for 28-days.
(R)-6-(2-(ethyl(4-(2-(ethylamino)ethyl)benzyl)amino)-4-methoxyphenyl)-5,6,7,8-tetrahydronaphthalen-2-ol dihydrochloride was provided by sponsor in capsule form for oral administration. All doses (0, 10, 25, 50 and 100 mg) were provided as identical presentations. Each patient was provided with 2 containers of 28-capsules each at the start of treatment and took one capsule from each container every day for 28-days. Placebo contained the same excipients as active medication, but without (R)-6-(2-(ethyl(4-(2-(ethylamino)ethyl)benzyl)amino)-4-methoxyphenyl)-5,6,7,8-tetrahydronaphthalen-2-ol dihydrochloride. The patients were instructed to take the capsules orally in the fasted state (morning).
All efficacy endpoints were to be analyzed for the ITT and PP populations, with the exception of the drug levels (analyzed for the ITT population only). Safety endpoints were to be analyzed for the Safety/ITT population.
Values for ranges of steady state trough levels and steady state Cmax can be derived from Tables 4 and 5. Steady state values are the values listed for days 8 and 15. The ranges were derived from the mean number listed in the table plus or minus one standard deviation (the number in parenthesis after each mean value). For example a steady state trough level ranging from 0.11 ng/mL to 0.79 ng/mL is derived from Table 4 by taking the trough level for 10 mg, 0.45 ng/mL, adding 0.34 to get the upper value of 0.79 and subtracting 0.34 to get the lover value of 0.11. Other ranges for steady state trough levels and ranges for Cmax can be similarly derived from the data in Tables 4 and 5.

Peak Level of drug (10 mg daily PO, Day 1, ITT, mean (SD)): 0.56 (0.34) ng/mL
Peak Level of drug (10 mg daily PO, Day 8, ITT, mean (SD)): 0.92 (0.52) ng/mL
Peak Level of drug (10 mg daily PO, Day 15, ITT, mean (SD)): 0.92 (0.69) ng/mL
Peak Level of drug (25 mg daily PO, Day 1, ITT, mean (SD)): 1.41 (0.63) ng/mL
Peak Level of drug (25 mg daily PO, Day 8, ITT, mean (SD)): 2.53 (0.74) ng/mL
Peak Level of drug (25 mg daily PO, Day 15, ITT, mean (SD)): 2.97 (1.09) ng/mL
Peak Level of drug (50 mg daily PO, Day 1, ITT, mean (SD)): 2.83 (1.72) ng/mL
Peak Level of drug (50 mg daily PO, Day 8, ITT, mean (SD)): 6.36 (2.58) ng/mL
Peak Level of drug (50 mg daily PO, Day 15, ITT, mean (SD)): 6.22 (3.46) ng/mL
Peak Level of drug (100 mg daily PO, Day 1, ITT, mean (SD)): 8.39 (4.04) ng/mL
Peak Level of drug (100 mg daily PO, Day 8, ITT, mean (SD)): 15.47 (7.14) ng/mL
Peak Level of drug (100 mg daily PO, Day 15, ITT, mean (SD)): 12.76 (5.28) ng/mL
concentration at 8 day (oral, 10 mg, derived from Table 4 (0.45 ± 0.34, Day 8), read-out: steady state trough level range (mean plus or minus one standard deviation)): 0.11 to 0.79 ng/mL
concentration at 8 day (10 mg daily PO, Day 8, ITT, mean (SD), read-out: Mean Trough Level of Drug): 0.45 ng/mL
concentration at 15 day (10 mg daily PO, Day 15, ITT, mean (SD), read-out: Mean Trough Level of Drug): 0.49 ng/mL
concentration at 29 day (10 mg daily PO, mean (SD), read-out: Mean Trough Level of Drug): 0.34 ng/mL
concentration at 8 day (25 mg daily PO, Day 8, ITT, mean (SD), read-out: Mean Trough Level of Drug): 1.33 ng/mL
concentration at 15 day (25 mg daily PO, Day 15, ITT, mean (SD), read-out: Mean Trough Level of Drug): 1.49 ng/mL
concentration at 29 day (25 mg daily PO, mean (SD), read-out: Mean Trough Level of Drug): 1.18 ng/mL
concentration at 8 day (50 mg daily PO, Day 8, ITT, mean (SD), read-out: Mean Trough Level of Drug): 3.11 ng/mL
concentration at 15 day (50 mg daily PO, Day 15, ITT, mean (SD), read-out: Mean Trough Level of Drug): 3.39 ng/mL
concentration at 29 day (50 mg daily PO, mean (SD), read-out: Mean Trough Level of Drug): 3.23 ng/mL
concentration at 8 day (100 mg daily PO, Day 8, ITT, mean (SD), read-out: Mean Trough Level of Drug): 6.91 ng/mL
concentration at 15 day (100 mg daily PO, Day 15, ITT, mean (SD), read-out: Mean Trough Level of Drug): 6.66 ng/mL
concentration at 29 day (100 mg daily PO, mean (SD), read-out: Mean Trough Level of Drug): 6.03 ng/mL
SMILES: CCNCCc1ccc(CN(CC)c2cc(OC)ccc2[C@@H]2CCc3cc(O)ccc3C2)cc1 [drug, (R)-6-(2-(ethyl(4-(2-(ethylamino)ethyl)benzyl)amino)-4-methoxyphenyl)-5,6,7,8-tetrahydronaphthalen-2-ol dihydrochloride]
